Data on seven compounds can be found in ChEMBL document CHEMBL5214910, “Rational Design of Dipicolylamine-Containing Carbazole Amphiphiles Combined with Zn2+ as Potent Broad-Spectrum Antibacterial Agents with a Membrane-Disruptive Mechanism” (J Med Chem, 2021).

Values after ≈ are worked out from the molar mass of the structure shown.

What is called MIC is the lowest concentration found to suppress growth. Usually HC50 stands for the concentration giving 50% haemolysis.

For series [1], the system named is Acinetobacter baumannii. The series is described as follows: Antibacterial activity against Acinetobacter baumannii ATCC 17978 assessed as inhIbition of bacterial growth incubated for 24 hrs by Muller hinton broth based dilution assay. In kind it is functional.
For series [2], the system named is Staphylococcus aureus. In words: Antibacterial activity against Staphylococcus aureus ATCC 29213 assessed as inhibition of bacterial growth incubated for 24 hrs by Muller hinton broth based dilution assay. The series is classed as functional.
The subject of series [3] is Staphylococcus aureus. The series is described as follows: Antibacterial activity against Methicillin-resistant Staphylococcus aureus N315 assessed as inhibition of bacterial growth incubated for 24 hrs by Muller hinton broth based dilution assay. The series is classed as functional.
Series [4] concerns Staphylococcus aureus. In words: Antibacterial activity against Methicillin-resistant Staphylococcus aureus NCTC10442 assessed as inhibition of bacterial growth incubated for 24 hrs by Muller hinton broth based dilution assay. In kind it is functional.
For series [5], the system named is Escherichia coli. In words: Antibacterial activity Escherichia coli ATCC 25922 assessed as inhibition of bacterial growth incubated for 24 hrs by Muller hinton broth based dilution assay. In kind it is functional.
Series [6] concerns Pseudomonas aeruginosa. In words: Antibacterial activity Pseudomonas aeruginosa ATCC 9027 assessed as inhibition of bacterial growth incubated for 24 hrs by Muller hinton broth based dilution assay. The series is classed as functional.
Series [7] concerns Acinetobacter baumannii. The series is described as follows: Antibacterial activity against Acinetobacter baumannii R2889 assessed as inhIbition of bacterial growth incubated for 24 hrs by Muller hinton broth based dilution assay. In kind it is functional.
In series [8] the test system is Staphylococcus aureus. The series is described as follows: Antibacterial activity against Staphylococcus aureus ATCC 29213 assessed as inhibition of bacterial growth incubated for 24 hrs in the presence of 12.5 ug/mL Zn2+ by Muller hinton broth based dilution assay. The series is classed as functional.
The test system of series [9] is Staphylococcus aureus. The series is described as follows: Antibacterial activity against Methicillin-resistant Staphylococcus aureus N315 assessed as inhibition of bacterial growth incubated for 24 hrs in the presence of 12.5 ug/mL Zn2+ by Muller hinton broth based dilution assay. The series is classed as functional.
Series [10] concerns Staphylococcus aureus. The series is described as follows: Antibacterial activity against Methicillin-resistant Staphylococcus aureus NCTC10442 assessed as inhibition of bacterial growth incubated for 24 hrs in the presence of 12.5 ug/mL Zn2+ by Muller hinton broth based dilution assay. The series is classed as functional.
In series [11] the test system is Escherichia coli. In words: Antibacterial activity Escherichia coli ATCC 25922 assessed as inhibition of bacterial growth incubated for 24 hrs in the presence of 12.5 ug/mL Zn2+ by Muller hinton broth based dilution assay. In kind it is functional.
Series [12] has as its system Pseudomonas aeruginosa. In words: Antibacterial activity Pseudomonas aeruginosa ATCC 9027 assessed as inhibition of bacterial growth incubated for 24 hrs in the presence of 12.5 ug/mL Zn2+ by Muller hinton broth based dilution assay. The series is classed as functional.
Series [13] relates to Acinetobacter baumannii. The series is described as follows: Antibacterial activity against Acinetobacter baumannii ATCC 17978 assessed as inhIbition of bacterial growth incubated for 24 hrs in the presence of 12.5 ug/mL Zn2+ by Muller hinton broth based dilution assay. In kind it is functional.
Series [14] concerns Acinetobacter baumannii. In words: Antibacterial activity against Acinetobacter baumannii R2889 assessed as inhIbition of bacterial growth incubated for 24 hrs in the presence of 12.5 ug/mL Zn2+ by Muller hinton broth based dilution assay. In kind it is functional.
In series [15] the test system is Escherichia coli. In words: Induction of drug resistance in Escherichia coli ATCC 25922 assessed as fold change in MIC incubated for 15 days. In kind it is functional. Conditions: time 15.0 day.
Series [16] is described as follows: Hemolytic activity in rabbit RBC incubated for 1 hrs by fluorescence based microplate reader assay. In kind it is toxicity, cell-based, Oryctolagus cuniculus, Erythrocyte. Particulars: rabbit red blood cells (erythrocytes).
Series [17] in a line: Hemolytic activity in rabbit RBC incubated for 1 hrs in the presence of 12.5 ug/mL Zn2+ by fluorescence based microplate reader assay. In kind it is toxicity, cell-based, Oryctolagus cuniculus, Erythrocyte. Particulars: rabbit red blood cells (erythrocytes).
In series [18] the test system is Pseudomonas aeruginosa. In words: Antibacterial activity against Pseudomonas aeruginosa ATCC 9027 in C57BL/6 mouse model of bacterial keratitis assessed as log reduction in viable bacterial count in infected cornea at 0.3 % pre-infected with bacteria for 24 hrs followed by topical administration of compound four times a day for 3 days. In kind it is functional. Particulars: route top, time 3 day.

On to `CCN(CC)CC(O)COc1cccc2c1c1ccccc1n2CC=C(C)C` (stereo unspecified), for which the MIC with Acinetobacter baumannii [1] is 50 µg/mL (≈ 131 µM); in the series on Staphylococcus aureus [2] it was 6.25 µg/mL (≈ 16.4 µM); with Staphylococcus aureus [3], 6.25 µg/mL (≈ 16.4 µM); in the series on Staphylococcus aureus [4] it was 6.25 µg/mL (≈ 16.4 µM); in the series with Escherichia coli [5], greater than 50 µg/mL; with Pseudomonas aeruginosa [6] it was greater than 50 µg/mL. Moreover, the MIC in the series with Acinetobacter baumannii [7] was 25 µg/mL (≈ 65.7 µM); in the series on Staphylococcus aureus [8], 6.25 µg/mL; with Staphylococcus aureus [9] it was 6.25 µg/mL; in the series on Staphylococcus aureus [10], 6.25 µg/mL; in the series on Escherichia coli [11] it was 50 µg/mL; with Pseudomonas aeruginosa [12], greater than 50 µg/mL. The MIC with Acinetobacter baumannii [13] was 50 µg/mL; in the series on Acinetobacter baumannii [14] it was 25 µg/mL.

With `O=C(O)c1cn(C2CC2)c2cc(N3CCNCC3)c(F)cc2c1=O` [CIPROFLOXACIN], the MIC with Acinetobacter baumannii [1] was determined as 0.39 µg/mL (≈ 1.18 µM); in the series on Staphylococcus aureus [2], 0.39 µg/mL (≈ 1.18 µM); in the series with Staphylococcus aureus [3] it was 0.39 µg/mL (≈ 1.18 µM); in the series with Staphylococcus aureus [4], 0.39 µg/mL (≈ 1.18 µM); in the series on Escherichia coli [5], 0.049 µg/mL (≈ 0.148 µM); with Pseudomonas aeruginosa [6], 0.195 µg/mL (≈ 0.589 µM). Further, the MIC was found to be 0.78 µg/mL (≈ 2.35 µM) in the series with Acinetobacter baumannii [7]; 0.39 µg/mL in the series on Staphylococcus aureus [8]; 0.39 µg/mL in the series on Staphylococcus aureus [9]; 0.39 µg/mL with Staphylococcus aureus [10]; 0.049 µg/mL in the series on Escherichia coli [11]; 0.195 µg/mL with Pseudomonas aeruginosa [12]. In addition, the MIC in the series on Acinetobacter baumannii [13] amounted to 0.39 µg/mL; in the series on Acinetobacter baumannii [14], 0.78 µg/mL.

For the compound `CC1(C)S[C@@H]2[C@H](NC(=O)[C@H](N)c3ccc(O)cc3)C(=O)N2[C@H]1C(=O)O`, in the series on Escherichia coli [15], the fold change (FC) was determined as 16.

Regarding `OC(COc1cccc2c1c1ccccc1n2CCCC(F)(F)F)CN(Cc1ccccn1)Cc1ccccn1` (stereo unspecified), the MIC was 6.25 µg/mL (≈ 11.4 µM) in the series with Acinetobacter baumannii [1]; 3.12 µg/mL (≈ 5.7 µM) with Staphylococcus aureus [2]; 3.12 µg/mL (≈ 5.7 µM) in the series on Staphylococcus aureus [3]; 1.56 µg/mL (≈ 2.84 µM) in the series on Staphylococcus aureus [4]; 12.5 µg/mL (≈ 22.8 µM) in the series with Escherichia coli [5]; greater than 50 µg/mL with Pseudomonas aeruginosa [6]. In addition, the MIC in the series on Acinetobacter baumannii [7] came out at 6.25 µg/mL (≈ 11.4 µM); in the series on Staphylococcus aureus [8], 1.56 µg/mL; in the series with Staphylococcus aureus [9] it was 1.56 µg/mL; in the series on Staphylococcus aureus [10], 0.78 µg/mL; in the series on Escherichia coli [11] it was 3.12 µg/mL; in the series on Pseudomonas aeruginosa [12], 12.5 µg/mL. Besides, the minimum inhibitory concentration (MIC) in the series on Acinetobacter baumannii [13] and in the series on Acinetobacter baumannii [14] was 3.12 µg/mL in each case. For the same compound, the HC50 at 1 h in series [16] and in series [17] was greater than 200 µg/mL throughout.

For the compound `COc1c(N2CCNC(C)C2)c(F)cc2c(=O)c(C(=O)O)cn(C3CC3)c12` (stereo unspecified) [GATIFLOXACIN], the “log(activity)” value with Pseudomonas aeruginosa [18] was 3.03.

With `CC(C)=CCn1c2ccccc2c2c(OCC(O)CN(C)C)cccc21` (stereo unspecified), the MIC with Acinetobacter baumannii [1] was 12.5 µg/mL (≈ 35.5 µM); in the series on Staphylococcus aureus [2], 6.25 µg/mL (≈ 17.7 µM); in the series on Staphylococcus aureus [3] it was 6.25 µg/mL (≈ 17.7 µM); in the series on Staphylococcus aureus [4], 6.25 µg/mL (≈ 17.7 µM); in the series on Escherichia coli [5], 25 µg/mL (≈ 70.9 µM); with Pseudomonas aeruginosa [6] it was greater than 50 µg/mL. The minimum inhibitory concentration (MIC) is 12.5 µg/mL (≈ 35.5 µM) in the series with Acinetobacter baumannii [7]; 6.25 µg/mL with Staphylococcus aureus [8]; 6.25 µg/mL with Staphylococcus aureus [9]; 6.25 µg/mL in the series with Staphylococcus aureus [10]; 25 µg/mL in the series with Escherichia coli [11]; greater than 50 µg/mL in the series with Pseudomonas aeruginosa [12]. Further, the MIC with Acinetobacter baumannii [13] and with Acinetobacter baumannii [14] was 12.5 µg/mL throughout.

Turning to `Cn1c2ccccc2c2c(OCC(O)CN(Cc3ccccn3)Cc3ccccn3)cccc21` (stereo unspecified), the MIC with Acinetobacter baumannii [1] is 12.5 µg/mL (≈ 27.6 µM); in the series with Staphylococcus aureus [2], 12.5 µg/mL (≈ 27.6 µM); in the series with Staphylococcus aureus [3] it was 6.25 µg/mL (≈ 13.8 µM); in the series with Staphylococcus aureus [4], 12.5 µg/mL (≈ 27.6 µM); in the series with Escherichia coli [5] it was 50 µg/mL (≈ 110 µM); in the series on Pseudomonas aeruginosa [6], greater than 50 µg/mL. Also, the MIC with Acinetobacter baumannii [7] was found to be 25 µg/mL (≈ 55.2 µM); in the series on Staphylococcus aureus [8], 3.12 µg/mL; in the series on Staphylococcus aureus [9], 1.56 µg/mL; with Staphylococcus aureus [10] it was 6.25 µg/mL; with Escherichia coli [11] it was 50 µg/mL; in the series on Pseudomonas aeruginosa [12], 12.5 µg/mL. The MIC in the series on Acinetobacter baumannii [13] came to 12.5 µg/mL; with Acinetobacter baumannii [14] it was 25 µg/mL. The HC50 at 1 h in series [16] and in series [17] was greater than 200 µg/mL each time.
